Data taken from ChEMBL document CHEMBL1142186, “Multistep resistance selection and postantibiotic-effect studies of the antipneumococcal activity of LBM415 compared to other agents” (2007).
Values after ≈ are worked out from the molar mass of the structure shown.

Assays:
Format in all cases: functional
Streptococcus pneumoniae [1] = test: Antibacterial activity against gatifloxacin resistance selected Streptococcus pneumoniae 3009 after 10 antibiotic-free subcultures by macrodilution method
Streptococcus pneumoniae [2] = test: Antibacterial activity against gatifloxacin resistance selected Streptococcus pneumoniae 1076 with ParC S79Y mutation after 10 antibiotic-free subcultures by macrodilution method
Streptococcus pneumoniae [3] = test: Antibacterial activity against clarithromycin resistance selected Streptococcus pneumoniae 3009 after 10 antibiotic-free subcultures by macrodilution method
Streptococcus pneumoniae [4] = test: Antibacterial activity against moxifloxacin resistance selected Streptococcus pneumoniae 3665 with GyrA S81Y mutation after 10 antibiotic-free subcultures by macrodilution method
Streptococcus pneumoniae [5] = test: Antibacterial activity against Streptococcus pneumoniae 3676 by macrodilution method
Streptococcus pneumoniae [6] = test: Antibacterial activity against clarithromycin resistance selected Streptococcus pneumoniae 3676 after 44 passages by macrodilution method
Streptococcus pneumoniae [7] = test: Antibacterial activity against Streptococcus pneumoniae 3009 by macrodilution method
Streptococcus pneumoniae [8] = test: Antibacterial activity against moxifloxacin resistance selected Streptococcus pneumoniae 19 with GyrA S81F mutation after 10 antibiotic-free subcultures by macrodilution method
Streptococcus pneumoniae [9] = test: Antibacterial activity against Streptococcus pneumoniae 3243 by macrodilution method
Streptococcus pneumoniae [10] = test: Antibacterial activity against clarithromycin resistance selected Streptococcus pneumoniae 3009 after 25 passages by macrodilution method
Streptococcus pneumoniae [11] = test: Antibacterial activity against Streptococcus pneumoniae assessed as period of suppression of bacterial growth
Streptococcus pneumoniae [12] = test: Antibacterial activity against clarithromycin resistance selected Streptococcus pneumoniae 3243 with 23S rRNA A2059T mutation after 41 passages by macrodilution method
Streptococcus pneumoniae [13] = test: Antibacterial activity against azithromycin resistance selected Streptococcus pneumoniae 1077 with 23S rRNA A2058G mutation after 10 antibiotic-free subcultures by macrodilution method
Streptococcus pneumoniae [14] = test: Antibacterial activity against Streptococcus pneumoniae 3665 by macrodilution method
Streptococcus pneumoniae [15] = test: Antibacterial activity against levofloxacin resistance selected Streptococcus pneumoniae 19 with GyrA S81Y and ParC D83Y mutation after 10 antibiotic-free subcultures by macrodilution method
Streptococcus pneumoniae [16] = test: Antibacterial activity against gatifloxacin resistance selected Streptococcus pneumoniae 37 with GyrA S81Y, GyrB E474K and ParC S79Y mutation after 10 antibiotic-free subcultures by macrodilution method
Streptococcus pneumoniae [17] = test: Antibacterial activity against clarithromycin resistance selected Streptococcus pneumoniae 3665 after 26 passages by macrodilution method
Streptococcus pneumoniae [18] = test: Antibacterial activity against moxifloxacin resistance selected Streptococcus pneumoniae 3243 after 10 antibiotic-free subcultures by macrodilution method
Streptococcus pneumoniae [19] = test: Antibacterial activity against moxifloxacin resistance selected Streptococcus pneumoniae 3676 with GyrA E85G, GyrB S478I and ParC S79Y mutation after 10 antibiotic-free subcultures by macrodilution method
Streptococcus pneumoniae [20] = test: Antibacterial activity against moxifloxacin resistance selected Streptococcus pneumoniae 1076 with ParC S79Y mutation after 10 antibiotic-free subcultures by macrodilution method
Streptococcus pneumoniae [21] = test: Antibacterial activity against clarithromycin resistance selected Streptococcus pneumoniae 3243 with 23S rRNA A2059T mutation after 10 antibiotic-free subcultures by macrodilution method
Streptococcus pneumoniae [22] = test: Antibacterial activity against moxifloxacin resistance selected Streptococcus pneumoniae 24 with GyrA S81Y, GyrB P413S and ParC S79F mutation after 10 antibiotic-free subcultures by macrodilution method
Streptococcus pneumoniae [23] = test: Antibacterial activity against clarithromycin resistance selected Streptococcus pneumoniae 3665 after 10 antibiotic-free subcultures by macrodilution method
Streptococcus pneumoniae [24] = test: Antibacterial activity against clarithromycin resistance selected Streptococcus pneumoniae 3676 after 10 antibiotic-free subcultures by macrodilution method
Streptococcus pneumoniae [25] = test: Antibacterial activity against moxifloxacin resistance selected Streptococcus pneumoniae 3009 with GyrA S81F and ParC D83N mutation after 10 antibiotic-free subcultures by macrodilution method
Streptococcus pneumoniae [26] = test: Antibacterial activity against azithromycin resistance selected Streptococcus pneumoniae 3243 with L22 insertion 93SFRPRA94 mutation after 10 antibiotic-free subcultures by macrodilution method
Streptococcus pneumoniae [27] = test: Antibacterial activity against levofloxacin resistance selected Streptococcus pneumoniae 3009 with GyrA S81Y and ParC S79Y mutation after 10 antibiotic-free subcultures by macrodilution method
Streptococcus pneumoniae [28] = test: Antibacterial activity against azithromycin resistance selected Streptococcus pneumoniae 2527 after 10 antibiotic-free subcultures by macrodilution method

CC[C@H]1OC(=O)[C@H](C)[C@@H](O[C@H]2C[C@@](C)(OC)[C@@H](O)[C@H](C)O2)[C@H](C)[C@@H](O[C@@H]2O[C@H](C)C[C@H](N(C)C)[C@H]2O)[C@](C)(OC)C[C@@H](C)C(=O)[C@H](C)[C@@H](O)[C@]1(C)O [CLARITHROMYCIN]
MIC (Streptococcus pneumoniae [1]): 2 µg/mL (≈ 2.67 µM) | MIC (Streptococcus pneumoniae [2]): > 128 µg/mL | MIC (Streptococcus pneumoniae [3]): 64 µg/mL (≈ 85.6 µM) | MIC (Streptococcus pneumoniae [4]): 2 µg/mL (≈ 2.67 µM) | MIC (Streptococcus pneumoniae [5]): 4 µg/mL (≈ 5.35 µM) | MIC (Streptococcus pneumoniae [6]): 32 µg/mL (≈ 42.8 µM) | MIC (Streptococcus pneumoniae [7]): 16 µg/mL (≈ 21.4 µM) | MIC (Streptococcus pneumoniae [8]): > 128 µg/mL | MIC (Streptococcus pneumoniae [9]): 0.016 µg/mL (≈ 0.0214 µM) | MIC (Streptococcus pneumoniae [10]): > 128 µg/mL | Post Antibiotic Effe (Streptococcus pneumoniae [11]): 3.8 h | MIC (Streptococcus pneumoniae [12]): 0.25 µg/mL (≈ 0.334 µM) | MIC (Streptococcus pneumoniae [13]): > 128 µg/mL | MIC (Streptococcus pneumoniae [14]): 2 µg/mL (≈ 2.67 µM) | MIC (Streptococcus pneumoniae [15]): > 128 µg/mL | MIC (Streptococcus pneumoniae [16]): > 128 µg/mL | MIC (Streptococcus pneumoniae [17]): 16 µg/mL (≈ 21.4 µM) | MIC (Streptococcus pneumoniae [18]): 0.004 µg/mL (≈ 0.00535 µM) | MIC (Streptococcus pneumoniae [19]): 4 µg/mL (≈ 5.35 µM) | MIC (Streptococcus pneumoniae [20]): > 128 µg/mL | MIC (Streptococcus pneumoniae [21]): 0.25 µg/mL (≈ 0.334 µM) | MIC (Streptococcus pneumoniae [22]): > 128 µg/mL | MIC (Streptococcus pneumoniae [23]): 8 µg/mL (≈ 10.7 µM) | MIC (Streptococcus pneumoniae [24]): 16 µg/mL (≈ 21.4 µM) | MIC (Streptococcus pneumoniae [25]): 4 µg/mL (≈ 5.35 µM) | MIC (Streptococcus pneumoniae [26]): 0.5 µg/mL (≈ 0.668 µM) | MIC (Streptococcus pneumoniae [27]): 0.5 µg/mL (≈ 0.668 µM) | MIC (Streptococcus pneumoniae [28]): 16 µg/mL (≈ 21.4 µM)
